The values that follow come from ChEMBL document CHEMBL1142922, “Amphipathic benzoic acid derivatives: synthesis and binding in the hydrophobic tunnel of the zinc deacetylase LpxC” (Bioorg Med Chem, 2007).

Active and inactive are the calls of the source. The rule behind the calls is not given here.

In one assay the target is T1, UDP-3-O-acyl-N-acetylglucosamine deacetylase (Aquifex aeolicus (strain VF5)) (UniProt O67648).
T1 sequence (whole entry): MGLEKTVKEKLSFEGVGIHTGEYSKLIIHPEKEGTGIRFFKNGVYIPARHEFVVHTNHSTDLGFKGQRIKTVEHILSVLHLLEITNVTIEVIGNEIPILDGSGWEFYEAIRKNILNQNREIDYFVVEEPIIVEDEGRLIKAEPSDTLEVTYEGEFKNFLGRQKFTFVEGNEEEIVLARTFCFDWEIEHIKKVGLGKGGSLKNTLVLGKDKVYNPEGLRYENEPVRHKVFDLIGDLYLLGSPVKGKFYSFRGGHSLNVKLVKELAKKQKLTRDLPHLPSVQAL
In words: (§1) Binding affinity to Aquifex aeolicus LpxC by isothermal titration calorimetry.
As to `CCCc1ccc(-c2ccc(C(=O)O)cc2)cc1`, the result was inactive. Regarding `COc1ccc(C(=O)O)cc1`, the outcome was inactive.

The target in a further assay is T2, UDP-3-O-acyl-N-acetylglucosamine deacetylase (Aquifex aeolicus (strain VF5), UniProt O67648).
T2 sequence (O67648 whole entry): T1 sequence (whole entry)
The assay is described as §1.
`CCCCCCCOc1ccc(C(=O)O)cc1` yielded a Kd of 2.3 µM. The same measure, in the same setting: the same measure for `CCCCCC/C=C/c1ccc(C(=O)O)cc1`: 6.2 µM; for `CCCCCCCOc1ccc(C(=O)O)cc1OC`: 8.6 µM; for `CCCCCCCOc1ccc(C(=O)O)cc1[N+](=O)[O-]`: 6.4 µM. Still for that read-out and setting: the same measure for `CCCCCCCOc1ccc(C(=O)O)cc1Cl`: 30 µM.

Consider `CCCCCCCOc1ccc(C(=O)O)cc1O`, for which the Kd was 9 µM. This Kd is about 3.3-fold lower than that of the compound before.

In turn, `CCCCCCCc1ccc(C(=O)O)cc1` displayed a Kd of 35 µM. On the same count and under the same terms, the same measure for `CCCCCCCOc1ccc(CC(=O)O)cc1`: 2.6 µM.
